Among the data in PubChem BioAssay (NCI) are TGI and GI50 values, retold here.

Each structure is given as a SMILES string.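 These data come from cells grown in 96-well plates and exposed to compound for 48 hours at five concentrations. GI50 marks 50% less growth. The concentration for full growth arrest is given as TGI.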 Peptide text beside a SMILES is read from it. * marks the point of attachment. X26 = Clc1c(Cl)c(Cl)c(O*)c(Cl)c1Cl; Boc = CC(C)(C)OC(=O)*; OBn = c1ccc(CO*)cc1; Bn = c1ccc(C*)cc1

For orientation: TGI means the concentration giving total growth inhibition. Higher therefore signals lower sensitivity of the cells. As a reminder, the GI50 is the concentration that inhibits growth by half.

Among the test systems are HCC-2998 colon; NCI-H23 lung; OVCAR-8 ovarian; RXF 393 renal; SK-MEL-28 melanoma; SNB-75 CNS; T-47D breast; UO-31 renal; NCI-H522 lung; MDA-N.
Holding throughout (test): DTP human tumour cell line panel, 48 h

For `CC(C)=CCC12Cc3ccc(O)cc3C(C(C)CN1)C2C` (configuration not stated), the concentration for total growth inhibition (TGI) in the experiment with HCC-2998 colon was 48.2 µM; with NCI-H23 lung, > 100 µM; in the experiment on OVCAR-8 ovarian it was > 100 µM; with RXF 393 renal, > 100 µM; in the experiment with SK-MEL-28 melanoma it was > 100 µM; in the experiment on SNB-75 CNS, > 100 µM. In addition, the TGI with T-47D breast and in the experiment on UO-31 renal was > 100 µM in each case.

Consider `CN(C)CCNc1c([N+](=O)[O-])sc2ccc(Cl)cc12`, for which the TGI with HCC-2998 colon is > 100 µM; with NCI-H23 lung, > 100 µM; in the experiment with NCI-H522 lung, 87.4 µM; in the experiment on OVCAR-8 ovarian, > 100 µM; in the experiment with RXF 393 renal it was 82.8 µM; in the experiment with SK-MEL-28 melanoma, > 100 µM. The results for the total growth inhibition concentration (TGI) in the experiment on SNB-75 CNS, with T-47D breast and in the experiment with UO-31 renal were 43 µM, > 100 µM and > 100 µM, respectively.

Turning to `O=C1N/N=C\c2ccc(cc2)OCc2cccc(n2)COc2ccc(cc2)/C=N\NC1=O`, the TGI in the experiment with MDA-N, with NCI-H23 lung, in the experiment with NCI-H522 lung, in the experiment with OVCAR-8 ovarian, in the experiment with RXF 393 renal and in the experiment with SK-MEL-28 melanoma was > 25 µM throughout. Also, the TGI in the experiment with SNB-75 CNS and in the experiment with UO-31 renal was > 25 µM each time.

With `O=c1[nH]c(=O)n(C2CC(O)C(CO)O2)cc1OC/C=C/Cc1ccccc1` (configuration not stated), the concentration for total growth inhibition (TGI) in the experiment with NCI-H23 lung, in the experiment on NCI-H522 lung, in the experiment on OVCAR-8 ovarian, in the experiment on RXF 393 renal, with SK-MEL-28 melanoma and in the experiment on SNB-75 CNS was > 100 µM in each case. Also, the TGI in the experiment with T-47D breast and in the experiment on UO-31 renal was > 100 µM each time.

Consider `c1c(N2CCOCC2)ssc1=[N+]1CCOCC1`, for which the concentration for total growth inhibition (TGI) in the experiment with HCC-2998 colon, with NCI-H23 lung, in the experiment with NCI-H522 lung, in the experiment on OVCAR-8 ovarian, with RXF 393 renal and in the experiment with SK-MEL-28 melanoma was > 100 µM throughout. Moreover, the TGI in the experiment with SNB-75 CNS and in the experiment with UO-31 renal was > 100 µM in each case.

As for `COc1cc2c3c(cc(Cl)nc3c1OC)C(=O)C(=O)N2`, the TGI in the experiment on HCC-2998 colon is 33.6 µM; in the experiment with NCI-H23 lung, 34.1 µM; in the experiment with NCI-H522 lung, 14.9 µM; in the experiment on OVCAR-8 ovarian it was 43.9 µM; in the experiment on RXF 393 renal it was 27.5 µM; in the experiment with SK-MEL-28 melanoma, 33.7 µM. For the same compound, the TGI in the experiment on SNB-75 CNS was 29.4 µM; with T-47D breast it was > 100 µM; in the experiment with UO-31 renal, 26.7 µM.

For `C[N+]1(CCN=C=NC2CCCCC2)CCOCC1`, the total growth inhibition concentration (TGI) with NCI-H23 lung, in the experiment on NCI-H522 lung, in the experiment with OVCAR-8 ovarian, in the experiment with RXF 393 renal, in the experiment on SK-MEL-28 melanoma and with SNB-75 CNS was > 100 µM each time. Moreover, the concentration for total growth inhibition (TGI) with T-47D breast and in the experiment with UO-31 renal was > 100 µM in each case.

`CCN1CCN(Cc2ccc(NC(=O)Nc3ccc(-n4ccc5c(NC(=O)c6ccccc6)nccc54)cc3)cc2C(F)(F)F)CC1`: the GI50 in the experiment on HCC-2998 colon is 1.23 µM; in the experiment on OVCAR-8 ovarian it was 0.968 µM; in the experiment with SK-MEL-28 melanoma, 1.62 µM; with SNB-75 CNS, 1.37 µM; with T-47D breast, 3.54 µM. For the same compound, the TGI with HCC-2998 colon came out at 2.54 µM; with OVCAR-8 ovarian, 4.92 µM; in the experiment on SK-MEL-28 melanoma, 3.07 µM; in the experiment on SNB-75 CNS it was 2.68 µM; in the experiment on T-47D breast it was 15.9 µM.

Regarding `O=C1CS/C(=N/N=C/c2cn(Cc3ccc(Cl)cc3Cl)c3ccccc23)N1`, the TGI in the experiment with HCC-2998 colon was 92.3 µM; in the experiment with NCI-H23 lung, > 100 µM; in the experiment on NCI-H522 lung, > 100 µM; in the experiment with OVCAR-8 ovarian, 30.6 µM; in the experiment on RXF 393 renal, 77.2 µM; in the experiment with SK-MEL-28 melanoma it was > 100 µM. Also, the TGI is 54.4 µM with SNB-75 CNS, > 100 µM in the experiment with T-47D breast and > 100 µM with UO-31 renal.

For `NC(Cc1[nH]nc2ccccc12)C(=O)O` (configuration not stated), the TGI with HCC-2998 colon, in the experiment on NCI-H23 lung, with NCI-H522 lung, in the experiment with OVCAR-8 ovarian, in the experiment on RXF 393 renal and in the experiment on SK-MEL-28 melanoma was > 100 µM throughout. The concentration for total growth inhibition (TGI) in the experiment on SNB-75 CNS, in the experiment with T-47D breast and in the experiment with UO-31 renal was > 100 µM in each case.

As for `CCOc1ccc(NCC2CC/C(=C\C=C\c3ccccc3)C2=O)cc1` (configuration not stated), the TGI is > 72.4 µM with HCC-2998 colon; 39.3 µM in the experiment with NCI-H23 lung; 32.3 µM in the experiment with NCI-H522 lung; 42.9 µM with OVCAR-8 ovarian; 29.6 µM in the experiment with RXF 393 renal; 35.5 µM with SK-MEL-28 melanoma. Also, the concentration for total growth inhibition (TGI) worked out at 59.9 µM in the experiment on SNB-75 CNS, 45.3 µM with T-47D breast and 66.2 µM in the experiment on UO-31 renal.

As for `CC(=O)OC1CC2(O)C(CCC3(C)C(c4ccc(=O)oc4)CCC32O)C2(C)C1=CC(O)C1OC12` (configuration not stated), the total growth inhibition concentration (TGI) was determined as 0.436 µM in the experiment with HCC-2998 colon; 0.0618 µM in the experiment with NCI-H23 lung; 0.0784 µM in the experiment on NCI-H522 lung; 0.258 µM in the experiment with OVCAR-8 ovarian; 0.0324 µM with RXF 393 renal; 0.592 µM with SK-MEL-28 melanoma. Besides, the TGI in the experiment on SNB-75 CNS worked out at 0.3 µM; with UO-31 renal, 0.323 µM.

In the case of `CCCO/N=[N+](\[O-])N(CC)CC`, the TGI in the experiment with HCC-2998 colon, with NCI-H23 lung, in the experiment with NCI-H522 lung, in the experiment with OVCAR-8 ovarian, in the experiment with RXF 393 renal and with SK-MEL-28 melanoma was > 100 µM throughout. The TGI in the experiment with UO-31 renal was > 100 µM.

In the case of `CC(C)CC(NC(=O)C(CCC(=O)OCc1ccccc1)NC(=O)OC(C)(C)C)C(=O)NC(COCc1ccccc1)C(=O)NC(Cc1ccccc1)C(=O)Oc1c(Cl)c(Cl)c(Cl)c(Cl)c1Cl` (configuration not stated) (Boc-E(OBn)LS(Bn)F-X26; configuration not given here), the TGI with MDA-N amounted to 48.6 µM; with NCI-H23 lung it was 34.2 µM; with NCI-H522 lung, 51.4 µM; with OVCAR-8 ovarian it was 65.5 µM; in the experiment on RXF 393 renal, 63.8 µM; in the experiment with SK-MEL-28 melanoma, 56.4 µM. Moreover, the TGI is > 100 µM with SNB-75 CNS and 50.2 µM in the experiment on UO-31 renal.

Consider `Cc1cc(OCc2nnc3sc(NC(=O)c4ccccc4)nn23)ccc1Cl`, for which the TGI in the experiment on HCC-2998 colon was 90.2 µM; in the experiment with NCI-H23 lung, 82.2 µM; with NCI-H522 lung it was 61 µM; with OVCAR-8 ovarian it was 47.1 µM; with RXF 393 renal, 83.3 µM; with SK-MEL-28 melanoma it was > 100 µM. The TGI with T-47D breast is > 100 µM; with UO-31 renal, 35.2 µM.

`CCCCCCc1cc2cc(-c3csc(-c4ccc(OC)cc4)n3)c(=O)oc2cc1O`: the TGI in the experiment on HCC-2998 colon was found to be 31.5 µM; in the experiment on RXF 393 renal, 29.2 µM; in the experiment with SK-MEL-28 melanoma, 24.6 µM; with SNB-75 CNS, 47.2 µM; in the experiment on T-47D breast, 24.1 µM; in the experiment on UO-31 renal, 19.8 µM.

As to `C[C@H](c1ccccc1)N1C(=O)[C@@H](OCc2ccccc2)[C@H]1[C@H](COC(=O)COCc1ccccc1)OCc1ccccc1`, the TGI in the experiment with MDA-N, in the experiment with NCI-H23 lung, with NCI-H522 lung, in the experiment with SK-MEL-28 melanoma, with SNB-75 CNS and with UO-31 renal was > 100 µM each time.

On to `O=C1/C(=C/c2ccc(Cl)cc2)CCCc2ccc(F)cc21`, for which the GI50 was 21.2 µM in the experiment on HCC-2998 colon; 36.7 µM with NCI-H23 lung; 12.2 µM in the experiment with NCI-H522 lung; 22.8 µM in the experiment on OVCAR-8 ovarian; 24.2 µM in the experiment with RXF 393 renal; 14.7 µM in the experiment with SK-MEL-28 melanoma. Also, the GI50 with SNB-75 CNS is 48.3 µM; in the experiment with UO-31 renal, 15.8 µM. Further, the TGI was 54.9 µM in the experiment with HCC-2998 colon; > 100 µM in the experiment on NCI-H23 lung; 54.5 µM in the experiment with NCI-H522 lung; 75.1 µM in the experiment on OVCAR-8 ovarian; 52 µM in the experiment with RXF 393 renal; 40.9 µM in the experiment with SK-MEL-28 melanoma. Moreover, the TGI in the experiment with SNB-75 CNS is > 100 µM; in the experiment on UO-31 renal, 35.9 µM.

Regarding `CC(C)(C)c1cc(/C=C2/NC(=O)NC2=O)cc(C(C)(C)C)c1O`, the TGI came out at 30.6 µM with NCI-H23 lung; 26.4 µM in the experiment on NCI-H522 lung; 38.5 µM in the experiment on OVCAR-8 ovarian; 19.7 µM in the experiment on RXF 393 renal; 32 µM in the experiment on SK-MEL-28 melanoma; 25.2 µM in the experiment with SNB-75 CNS. In the experiment with T-47D breast, this compound showed a TGI of 11.8 µM.

For `CCN(CCCCCCCCCCN1CC(=O)N(CCCCCCCCCCN(CC)Cc2ccccc2OC)CC1=O)Cc1ccccc1OC`, the GI50 is 1.46 µM in the experiment with HCC-2998 colon; 1.81 µM in the experiment with NCI-H23 lung; 1.47 µM with OVCAR-8 ovarian; 0.646 µM in the experiment with RXF 393 renal; 1.75 µM with SK-MEL-28 melanoma; 2.68 µM in the experiment on SNB-75 CNS. In addition, the GI50 in the experiment on T-47D breast is 1.99 µM; in the experiment on UO-31 renal, 1.09 µM. Moreover, the TGI with HCC-2998 colon stood at 2.9 µM; in the experiment with NCI-H23 lung, 4.52 µM; with OVCAR-8 ovarian it was 3.29 µM; in the experiment with RXF 393 renal, 1.93 µM; in the experiment on SK-MEL-28 melanoma it was 3.22 µM; with SNB-75 CNS, 11.8 µM. Also, the TGI worked out at 6.33 µM with T-47D breast and 3.25 µM in the experiment on UO-31 renal.

For the compound `COc1ccc(OC)c(NC(=O)C(=O)C(C(=O)c2ccccc2F)C2OC(=O)c3ccccc32)c1` (configuration not stated), the TGI is > 100 µM in the experiment with HCC-2998 colon; > 100 µM in the experiment with NCI-H23 lung; 71.5 µM in the experiment with NCI-H522 lung; > 100 µM in the experiment on OVCAR-8 ovarian; 70.7 µM in the experiment on RXF 393 renal; > 100 µM in the experiment on SK-MEL-28 melanoma. For the same compound, the TGI in the experiment on SNB-75 CNS and in the experiment on UO-31 renal was > 100 µM throughout.

Turning to `CCOC(=O)Cn1nnc2cc(Nc3c(C)[n+]([O-])c4cc(F)c(OCC)cc4[n+]3[O-])ccc21`, the concentration for total growth inhibition (TGI) in the experiment on NCI-H23 lung, in the experiment on NCI-H522 lung, in the experiment on OVCAR-8 ovarian, in the experiment with RXF 393 renal, in the experiment with SK-MEL-28 melanoma and in the experiment with T-47D breast was > 100 µM each time. Further, in the experiment with UO-31 renal, the TGI was > 100 µM.
